# Results published in PubChem BioAssay (NCI).
# “And” between values parts separate entries of the source, which are not always exact repeats. Equal entries are not always repeated.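 Method: 48-hour compound exposure of cells in 96-well plates, five concentrations, linear interpolation of endpoints. GI50 marks 50% less growth. TGI: total growth inhibition.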
# How the values were obtained:
# Assay in all cases: NCI-60 cell line screen, 48 h
# ACHN renal = system: ACHN renal
# IGROV1 ovarian = system: IGROV1 ovarian
# K-562 leukemia = system: K-562 leukemia
# M14 melanoma = system: M14 melanoma
# MCF7 breast = system: MCF7 breast
# MOLT-4 leukemia = system: MOLT-4 leukemia
# NCI-H522 lung = system: NCI-H522 lung
# OVCAR-4 ovarian = system: OVCAR-4 ovarian
# PC-3 prostate = system: PC-3 prostate
# SN12C renal = system: SN12C renal
# UACC-62 melanoma = system: UACC-62 melanoma
Structure (SMILES),TGI (ACHN renal),TGI (IGROV1 ovarian),TGI (K-562 leukemia),TGI (M14 melanoma),TGI (MCF7 breast),TGI (MOLT-4 leukemia),TGI (NCI-H522 lung),TGI (OVCAR-4 ovarian),TGI (PC-3 prostate),TGI (SN12C renal),TGI (UACC-62 melanoma),GI50 (ACHN renal),GI50 (K-562 leukemia),GI50 (M14 melanoma),GI50 (MCF7 breast),GI50 (MOLT-4 leukemia),GI50 (PC-3 prostate),GI50 (UACC-62 melanoma)
COc1ccc2c(c1OC)C(=O)N/C2=C\c1c(CCN(C)C)cc2c(c1OC)OCO2,> 100 µM,> 100 µM,> 100 µM,> 100 µM,> 100 µM,> 100 µM,> 100 µM,> 100 µM,> 100 µM,> 100 µM,,,,,,,,
CN1CC2=C(NC(=S)NC2c2ccccc2Cl)/C(=C/c2ccccc2Cl)C1 (centres undefined),> 100 µM,> 100 µM,> 100 µM,> 100 µM,> 100 µM,75.5 µM,> 100 µM,76.7 µM,> 100 µM,> 100 µM,> 100 µM,,,,,,,
COc1cc(C2OC[C@@H]3C(=O)OC[C@H]23)cc(O)c1OC (some centres undefined),> 100 µM,> 100 µM,> 100 µM,> 100 µM,> 100 µM,> 100 µM,> 100 µM,> 100 µM,> 100 µM,> 100 µM,> 100 µM,,,,,,,
C=C1c2nc3ccccc3n2C=C(c2ccc(Cl)cc2)N1c1ccc(OCCN2CCCCC2)cc1,> 100 µM,> 45 µM,> 100 µM,> 100 µM,> 100 µM,> 45 µM and 9.22 µM,45 µM,> 45 µM,> 100 µM,> 45 µM,> 100 µM,> 100 µM,1.09 µM,> 100 µM,> 100 µM,0.553 µM,> 100 µM,> 100 µM
NC(=O)CCC(NC(=O)c1c2ccccc2nc2ccccc12)C(=O)O (centres undefined),> 100 µM,> 100 µM,> 100 µM,> 100 µM,> 100 µM,> 100 µM,> 100 µM,> 100 µM,> 100 µM,> 100 µM,> 100 µM,,,,,,,
O=c1[nH]nc(Cc2ccccc2)n1/N=C/c1ccc([N+](=O)[O-])cc1,> 100 µM,> 100 µM,> 100 µM,,> 100 µM,> 100 µM,> 100 µM,> 100 µM,> 100 µM,> 100 µM,> 100 µM,,,,,,,
Cc1cc(S(=O)(=O)NC(=NCCc2ccccc2)NN)c(S)cc1Cl,,> 100 µM,> 100 µM,91.5 µM,> 100 µM,63.9 µM,> 100 µM,> 100 µM,> 100 µM,> 100 µM,40 µM,,,,,,,
CC(=O)Oc1ccc2cc(-c3ccc(OC(C)=O)c(OC(C)=O)c3)c(=O)oc2c1,> 100 µM,,> 100 µM,> 100 µM,> 100 µM,> 100 µM,> 100 µM,> 100 µM,> 100 µM,> 100 µM,,,,,,,,
CC(C)(C)n1c(=O)n2n(c1=O)C1c3cccc4cccc(c34)C2C2c3cccc4cccc(c34)C1n1c(=O)n(C(C)(C)C)c(=O)n12,> 100 µM,> 100 µM,> 100 µM,> 100 µM,> 100 µM,> 100 µM,> 100 µM,,> 100 µM,> 100 µM,> 100 µM,,,,,,,
O=C(CN=C(CN(c1ccccc1)c1ccccc1)Oc1ccc(Cl)cc1Cl)n1ccnc1,> 100 µM,> 100 µM,> 100 µM,> 100 µM,> 100 µM,> 100 µM,,> 100 µM,> 100 µM,> 100 µM,> 100 µM,,,,,,,
CC(C(=O)n1ccnc1)N1c2ccccc2Sc2ccccc21 (centres undefined),> 100 µM,> 100 µM,> 100 µM,> 100 µM,> 100 µM,> 100 µM,,> 100 µM,> 100 µM,> 100 µM,> 100 µM,,,,,,,
O=S(=O)(c1cc(Cl)ccc1Cl)N1CCN(c2cccc(Cl)c2)CC1,> 100 µM,> 100 µM,> 100 µM,,> 100 µM,> 100 µM,> 100 µM,> 100 µM,> 100 µM,> 100 µM,,,,,,,,
C/C=C\C(CC(=O)OC)CC(=O)N(CCC1CN(S(=O)(=O)C(F)(F)F)c2ccccc21)Cc1ccc(OC)cc1OC (centres undefined),> 100 µM,> 100 µM,> 100 µM,> 100 µM,> 100 µM,> 100 µM,> 100 µM,> 100 µM,> 100 µM,> 100 µM,,,,,,,,
CCOC(=O)c1sc2nc1CSc1sc(=S)sc1SCc1nc(sc1C(=O)OCC)-c1nc(c(C(=O)OCC)s1)CSc1sc(=S)sc1SCc1nc-2sc1C(=O)OCC,> 10 µM,> 10 µM,> 10 µM,,> 10 µM,> 10 µM,> 10 µM,> 10 µM,> 10 µM,> 10 µM,> 10 µM,,,,,,,
CCOC(=O)N/N=C(\CC)OCC,> 100 µM,> 100 µM,> 100 µM,> 100 µM,> 100 µM,> 100 µM,> 100 µM,,> 100 µM,> 100 µM,> 100 µM,,,,,,,
COC(=O)/N=[N+](\[O-])C(c1ccccc1)c1ccccc1,,> 100 µM,> 100 µM,> 100 µM,> 100 µM,> 100 µM,> 100 µM,> 100 µM,> 100 µM,> 100 µM,> 100 µM,,,,,,,
